Source: ChEMBL document CHEMBL1201862, “PubChem BioAssay data set” (2004)
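Where inhibition never reached the appropriate level, the endpoint shown equals the highest concentration tested. Otherwise, values were interpolated linearly from a five-concentration, 48-hour dose response in 96-well plates. GI50 marks 50% less growth.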 Calls of active or inactive are those of the source. Rule as the data show it: active = GI50 up to about 1.1 µM and inactive = higher.

Assays:
Assay in all cases: DTP human tumour cell line panel, 48 h
SF-539 = tested on: SF-539
786-0 = tested on: 786-0
UACC-62 = tested on: UACC-62
CCRF-CEM = tested on: CCRF-CEM
EKVX = tested on: EKVX
SR = tested on: SR
A498 = tested on: A498
Hs-578T = tested on: Hs-578T
SK-MEL-2 = tested on: SK-MEL-2
PC-3 = tested on: PC-3
SK-MEL-28 = tested on: SK-MEL-28
BT-549 = tested on: BT-549
IGROV-1 = tested on: IGROV-1
NCI-H460 = tested on: NCI-H460
HCC 2998 = tested on: HCC 2998
HOP-92 = tested on: HOP-92
SK-OV-3 = tested on: SK-OV-3
NCI/ADR-RES = tested on: NCI/ADR-RES
HT-29 = tested on: HT-29
M19-MEL = tested on: M19-MEL

SMILES	GI50 (SF-539)	GI50 (786-0)	GI50 (UACC-62)	GI50 (CCRF-CEM)	GI50 (EKVX)	GI50 (SR)	GI50 (A498)	GI50 (Hs-578T)	GI50 (SK-MEL-2)	GI50 (PC-3)	GI50 (SK-MEL-28)	GI50 (BT-549)	GI50 (IGROV-1)	GI50 (NCI-H460)	GI50 (HCC 2998)	GI50 (HOP-92)	GI50 (SK-OV-3)	GI50 (NCI/ADR-RES)	GI50 (HT-29)	GI50 (M19-MEL)
CC1=COC2=C(C)C(=O)C(=O)c3c(C)ccc1c32 [MANSONONE F]	3.21 µM (inactive)	4.1 µM (inactive)	3.24 µM (inactive)	2.98 µM (inactive)	6.92 µM (inactive)	3.45 µM (inactive)	20.1 µM (inactive)	17.7 µM (inactive)	5.56 µM (inactive)	2.49 µM (inactive)	14.2 µM (inactive)	14.2 µM (inactive)	3.74 µM (inactive)	2.18 µM (inactive)	6.27 µM (inactive)	15.6 µM (inactive)	15.8 µM (inactive)	2.1 µM (inactive)	3.15 µM (inactive)	
C=C1C(=O)O[C@H]2C/C(C)=C/CC[C@@]3(C)O[C@](C)(CC[C@@H]3I)[C@@H](I)C[C@@H]12	6.4 µM (inactive)	4.68 µM (inactive)	4.16 µM (inactive)	0.592 µM (active)	7.16 µM (inactive)	1.5 µM (inactive)	9.68 µM (inactive)	8.49 µM (inactive)	9.02 µM (inactive)	4.91 µM (inactive)	7.01 µM (inactive)	4.75 µM (inactive)	1.78 µM (inactive)	6.38 µM (inactive)	4.09 µM (inactive)	5.83 µM (inactive)	7.24 µM (inactive)	1.44 µM (inactive)	3.37 µM (inactive)	
CN1CCc2c1nc(-c1ccc([N+](=O)[O-])cc1)c1c2N(C)CC1	> 100 µM (inactive)	> 100 µM (inactive)	> 100 µM (inactive)	> 100 µM (inactive)	> 100 µM (inactive)		43.2 µM (inactive)		> 100 µM (inactive)				> 100 µM (inactive)	> 100 µM (inactive)	> 100 µM (inactive)	9.4 µM (inactive)	> 100 µM (inactive)		25.5 µM (inactive)	> 100 µM (inactive)
CO/N=C(\C)c1cccc(Nc2c3ccccc3nc3occc23)c1	9.06 µM (inactive)	14.7 µM (inactive)	7.55 µM (inactive)	5.42 µM (inactive)	11.1 µM (inactive)	3.33 µM (inactive)	19.3 µM (inactive)	17 µM (inactive)	3.56 µM (inactive)	16.8 µM (inactive)	5.35 µM (inactive)	18.1 µM (inactive)	5.05 µM (inactive)	5.81 µM (inactive)	6.93 µM (inactive)	14.3 µM (inactive)	14.4 µM (inactive)	4.12 µM (inactive)	4.47 µM (inactive)	
CCOC1CC2OC(=O)C1C=C2C(=O)OC (stereo not drawn)	24.8 µM (inactive)	29.2 µM (inactive)	30.5 µM (inactive)	16.8 µM (inactive)	> 100 µM (inactive)		> 100 µM (inactive)		31.4 µM (inactive)		21 µM (inactive)		46.6 µM (inactive)	79.3 µM (inactive)	> 100 µM (inactive)	32.7 µM (inactive)	> 100 µM (inactive)		37.5 µM (inactive)	37.2 µM (inactive)
CCN(CC)C(=O)C(C)n1cc(C)c(=O)[nH]c1=O (stereo not drawn)	> 100 µM (inactive)	> 100 µM (inactive)	> 100 µM (inactive)	> 100 µM (inactive)	> 100 µM (inactive)				> 100 µM (inactive)		> 100 µM (inactive)		> 100 µM (inactive)	> 100 µM (inactive)	> 100 µM (inactive)				> 100 µM (inactive)	> 100 µM (inactive)
O=C1c2ccccc2-c2ccc(N(Cc3ccc(Br)cc3)Cc3ccc(Br)cc3)cc21	> 100 µM (inactive)	> 100 µM (inactive)	> 100 µM (inactive)	11.1 µM (inactive)	> 100 µM (inactive)	2.44 µM (inactive)	> 100 µM (inactive)	> 100 µM (inactive)	> 100 µM (inactive)	> 100 µM (inactive)	> 100 µM (inactive)	> 100 µM (inactive)	> 100 µM (inactive)	9.82 µM (inactive)	> 100 µM (inactive)	> 100 µM (inactive)	> 100 µM (inactive)	> 100 µM (inactive)	> 100 µM (inactive)	
NNC(=O)C(=O)N/N=C(\CCCC(=O)Nc1ccc(Cl)cc1)CC(=O)c1ccc(F)cc1		> 100 µM (inactive)	3.43 µM (inactive)	> 100 µM (inactive)	> 100 µM (inactive)		2.66 µM (inactive)		15.7 µM (inactive)		> 100 µM (inactive)		> 100 µM (inactive)	> 100 µM (inactive)	> 100 µM (inactive)	> 100 µM (inactive)			83.2 µM (inactive)	53.3 µM (inactive)
CC1CC(=O)CC[C@@H]1OCc1ccccc1 (stereo partly drawn)	> 100 µM (inactive)	> 100 µM (inactive)	> 100 µM (inactive)	53.8 µM (inactive)	> 100 µM (inactive)		> 100 µM (inactive)		> 100 µM (inactive)				> 100 µM (inactive)	> 100 µM (inactive)	> 100 µM (inactive)		> 100 µM (inactive)		> 100 µM (inactive)	> 100 µM (inactive)
COc1ccc(O)c(/C(C)=N/NC(=S)N(C)C)c1	64 µM (inactive)	> 40.7 µM (inactive)	26.1 µM (inactive)	8.93 µM (inactive)	31.9 µM (inactive)	25.8 µM (inactive)	> 100 µM (inactive)	> 100 µM (inactive)	> 43.2 µM (inactive)	> 36.4 µM (inactive)	35.7 µM (inactive)	36 µM (inactive)	14.3 µM (inactive)	15.6 µM (inactive)	> 61.9 µM (inactive)	> 100 µM (inactive)	42.3 µM (inactive)	18 µM (inactive)	0.0306 µM (active)	
Cc1nc(-n2nc(-c3ccccc3)cc2-c2ccccc2)sc1C(=O)/C=C/c1ccccc1	> 100 µM (inactive)	> 100 µM (inactive)	> 100 µM (inactive)	72.9 µM (inactive)	32.9 µM (inactive)		> 100 µM (inactive)		> 100 µM (inactive)		> 100 µM (inactive)		75.5 µM (inactive)	> 100 µM (inactive)	> 100 µM (inactive)	70.1 µM (inactive)	> 100 µM (inactive)		> 100 µM (inactive)	> 100 µM (inactive)
CC1OC(OC2C(O)COC(OC3C(C)OC(OC4C(OC(=O)[C@]56CCC(C)(C)C[C@@H]5C5=CCC7[C@@]8(C)C[C@H](O)[C@H](OC9OC(CO)C(O)C(O)C9O)[C@@](C)(CO)[C@@H]8CC[C@@]7(C)[C@]5(C)CC6)OCC(O)C4O)C(O)C3OC3OCC(O)(CO)C3O)C2O)C(O)C(O)C1O (stereo partly drawn)	20.8 µM (inactive)	12.4 µM (inactive)	13.2 µM (inactive)	18.5 µM (inactive)	4.16 µM (inactive)	13.8 µM (inactive)	3.97 µM (inactive)	7.48 µM (inactive)	13.8 µM (inactive)	11.9 µM (inactive)	3.29 µM (inactive)	16.6 µM (inactive)	13.3 µM (inactive)	18.7 µM (inactive)	5.18 µM (inactive)	26.6 µM (inactive)	17.7 µM (inactive)	18.8 µM (inactive)	17.5 µM (inactive)	
COc1ccc2nc3c(c(N)c2c1)C1CCC3C1(C)C (stereo not drawn)	38.2 µM (inactive)	22.5 µM (inactive)	15.3 µM (inactive)	14.1 µM (inactive)	30.6 µM (inactive)	34.8 µM (inactive)	25.1 µM (inactive)	> 100 µM (inactive)	25.5 µM (inactive)	24.3 µM (inactive)	30.8 µM (inactive)	> 100 µM (inactive)	42.9 µM (inactive)	31.2 µM (inactive)	17.5 µM (inactive)	16.4 µM (inactive)	28.1 µM (inactive)	> 100 µM (inactive)	23.8 µM (inactive)	
CCOC(=O)CSc1nc(-c2ccc(OC)cc2)c(C#N)c(=O)[nH]1	> 100 µM (inactive)	> 100 µM (inactive)	> 100 µM (inactive)	> 100 µM (inactive)	> 100 µM (inactive)	84.9 µM (inactive)	> 100 µM (inactive)	> 100 µM (inactive)	> 100 µM (inactive)	> 100 µM (inactive)	> 100 µM (inactive)	> 100 µM (inactive)	> 100 µM (inactive)	> 100 µM (inactive)	> 100 µM (inactive)	> 100 µM (inactive)	> 100 µM (inactive)	> 100 µM (inactive)	> 100 µM (inactive)	
Cc1ccc(S[C@@](C=O)(NC(=O)OCc2ccccc2)C(F)(F)F)cc1	24.7 µM (inactive)	20.4 µM (inactive)	19.3 µM (inactive)	23.2 µM (inactive)	22.3 µM (inactive)	14.5 µM (inactive)	65 µM (inactive)	44.3 µM (inactive)	25.8 µM (inactive)	18.6 µM (inactive)	25.3 µM (inactive)	28.4 µM (inactive)	18.5 µM (inactive)	29.9 µM (inactive)	37.8 µM (inactive)	22.9 µM (inactive)	45 µM (inactive)	21.4 µM (inactive)	16.9 µM (inactive)	
CCN(CC)CCNC(=O)c1cccc2cc3ccccc3nc12	4.49 µM (inactive)	6.15 µM (inactive)	4.79 µM (inactive)	5.69 µM (inactive)	5.73 µM (inactive)		6.92 µM (inactive)		7.53 µM (inactive)		9.71 µM (inactive)		5.2 µM (inactive)	2.88 µM (inactive)	5.89 µM (inactive)	4.78 µM (inactive)	8.93 µM (inactive)		3.95 µM (inactive)	4.89 µM (inactive)
